Laboratory results published in ChEMBL document CHEMBL4385609, “Anti-tubulin agents of natural origin: Targeting taxol, vinca, and colchicine binding domains” (Eur J Med Chem, 2019).
pIC50: −log10 of the molar value. Values after ≈ are worked out from the molar mass of the structure shown.

Columns and labels:
A549 [1] = test: Antiproliferative activity against human A549 cells assessed as reduction in cell growth incubated for 24 hrs by MTT assay; assay type: functional, cell-based; conditions: A549, 24 h
A-375 = test: Antiproliferative activity against human A375 cells assessed as reduction in cell growth incubated for 24 hrs by MTT assay; assay type: functional, cell-based; conditions: A-375, 24 h
MCF7 = test: Antiproliferative activity against human MCF7 cells assessed as reduction in cell growth; assay type: functional, cell-based
HeLa [2] = test: Antiproliferative activity against human HeLa cells assessed as reduction in cell growth; assay type: functional, cell-based
[3] = Antiproliferative activity against mouse EMT6/AR1 cells assessed as reduction in cell growth; assay type: functional, cell-based
MDA-MB-231 = test: Antiproliferative activity against human MDA-MB-231 cells assessed as reduction in cell growth; assay type: functional, cell-based
BGC-823 = test: Antiproliferative activity against human BGC823 cells assessed as reduction in cell growth incubated for 24 hrs by MTT assay; assay type: functional, cell-based; conditions: BGC-823, 24 h
Tubulin = test: Inhibition of tubulin polymerization (unknown origin); assay type: protein-complex assay, Homo sapiens
[4] = Antiproliferative activity against human MEL28 cells assessed as reduction in cell growth; assay type: functional, cell-based; conditions: SK-MEL-28
A549 [5] = test: Antiproliferative activity against human A549 cells assessed as reduction in cell growth; assay type: functional, cell-based
HT-29 = test: Antiproliferative activity against human HT-29 cells assessed as reduction in cell growth; assay type: functional, cell-based
U-937 = test: Antiproliferative activity against human U937 cells assessed as reduction in cell growth; assay type: functional, cell-based
P388 [6] = test: Antiproliferative activity against mouse P388 cells assessed as reduction in cell growth; assay type: functional, cell-based
SKM-1 = test: Antiproliferative activity against human SKM1 cells assessed as reduction in cell growth; assay type: functional, cell-based
[7] = Potency index, ratio of paclitaxel IC50 to laulimalide IC50 for cytotoxicity against human SKVLB-1 cells; assay type: functional
[8] = Cytotoxicity against mouse tsFT210 cells; assay type: functional
Bos taurus = species on record: Bos taurus; test: Inhibition of bovine brain microtubule assembly at 250 uM by turbidimetric assay relative to control
[9] = Antiproliferative activity against human […] cells assessed as reduction in cell growth incubated for 48 hrs by MTT assay; assay type: functional, cell-based
A549 [10] = test: Antiproliferative activity against human A549 cells assessed as reduction in cell growth incubated for 48 hrs by MTT assay; assay type: functional, cell-based; conditions: A549, 48 h
HeLa [11] = test: Antiproliferative activity against human HeLa cells assessed as reduction in cell growth incubated for 48 hrs by MTT assay; assay type: functional, cell-based
K562 = test: Antiproliferative activity against human K562 cells assessed as reduction in cell growth incubated for 48 hrs by MTT assay; assay type: functional, cell-based; conditions: K562, 48 h
[12] = Antiproliferative activity against human MCF cells assessed as reduction in cell growth incubated for 48 hrs by MTT assay; assay type: functional, cell-based
WiDr = test: Antiproliferative activity against human WiDr cells assessed as reduction in cell growth incubated for 48 hrs by MTT assay; assay type: functional, cell-based
P388 [13] = test: Antiproliferative activity against mouse P388 cells assessed as reduction in cell growth incubated for 48 hrs by MTT assay; assay type: functional, cell-based; conditions: P388, 48 h
CA46 = test: Cytotoxicity against human CA46 cells assessed as inhibition of tubulin polymerization after 36 hrs; assay type: functional, cell-based; conditions: CA46, 36 h

Question: With CC[C@@]1(C)Oc2cc(c([S+]([O-])CCCCCO)cc2O)[C@@H](O)[C@H](NC)C(=O)N[C@@H](C(C)C)C(=O)NC1C(=O)NCC(=O)O (some centres undefined) as the compound, how does the pIC50 (A549 [1]) read?
Answer: 4.44

Question: What about the pIC50 (A-375) of the same compound?
Answer: 4.65

Question: With COc1cc2cc(c1Cl)N(C)C(=O)C[C@H](OC(=O)C(C)C)[C@]1(C)O[C@@H]1[C@H](C)[C@@H]1C[C@@](O)(NC(=O)O1)[C@H](OC)/C=C/C=C(\C)C2 [ANSAMITOCIN P3] as the compound, how does the pIC50 (MCF7) read?
Answer: 8.69

Question: And the pIC50 (HeLa [2])?
Answer: 8.30

Question: What about the pIC50 [3] of the same compound?
Answer: 6.85

Question: What about the pIC50 (MDA-MB-231) of the same compound?
Answer: 7.82

Question: With CC[C@@]1(C)Oc2cc(c([S+]([O-])C[C@@H](O)C[C@H](N)C(=O)O)cc2O)[C@@H](O)[C@H](NC)C(=O)N[C@@H](C)C(=O)NC1C(=O)NCC(=O)O (some centres undefined) as the compound, how does the pIC50 (BGC-823) read?
Answer: 5.99

Question: With CC(C)(C)c1[nH]cnc1/C=c1\[nH]c(=O)/c(=C/C(=O)c2ccccc2)[nH]c1=O as the compound, how does the pIC50 (Tubulin) read?
Answer: 5.85

Question: What does the source list for C=C1C[C@@H]2C/C=C/C(=O)C/C(C)=C\C=C\C(=O)O[C@H]([C@H](O)NC(=O)/C=C\C=C\C)C/C(C)=C/[C@H](C1)O2 [ZAMPANOLIDE]?
Answer: IC50 [4]: 1 to 5 ng/mL (≈ 2.02 to 10.1 nM); IC50 (A549 [5]): 1 to 5 ng/mL (≈ 2.02 to 10.1 nM); IC50 (HT-29): 1 to 5 ng/mL (≈ 2.02 to 10.1 nM); pIC50 (U-937): 8.54; IC50 (P388 [6]): 1 to 5 ng/mL (≈ 2.02 to 10.1 nM); pIC50 (SKM-1): 8.96

Question: With COc1cc(/C=N/OC/C=C/C=C(\C)CCC(O)c2cccs2)cc(OC)c1OC (centres undefined) as the compound, how does the pIC50 (MDA-MB-231) read?
Answer: 6.92

Question: With C=C1C[C@H](C)C[C@@H]2CC=C[C@@H](C/C=C\C(=O)O[C@H]([C@@H](O)/C=C/[C@@H]3CC(C)=CCO3)C[C@@H]3O[C@H]3[C@@H](O)C1)O2 [FIJIANOLIDE B] as the compound, how does the “Ratio IC50” value [7] read?
Answer: 100

Question: With C=CCC1(CC/C(C)=C/C=C/CC/C=C\[C@]2(C)CSC([C@@H]3C[C@@H]3C)=N2)OCCO1 as the compound, how does the pIC50 (MCF7) read?
Answer: 7.52

Question: What does the source list for COc1ccc2c(C[C@@H]3NC(=O)[C@@H]4CCCN4C3=O)c(CC=C(C)C)[nH]c2c1 [TRYPROSTATIN A]?
Answer: MIC [8]: 16.4 µM (≈ 6.26 µg/mL); inhibition (Bos taurus): 40%

Question: With C=CC(C)(C)c1[nH]cnc1/C=C1\NC(=O)[C@H](Cc2ccccc2)NC1=O as the compound, how does the pIC50 [9] read?
Answer: 6.48 to 6.74

Question: What about the pIC50 (A549 [10]) of the same compound?
Answer: 6.48 to 6.74

Question: And the pIC50 (HeLa [11])?
Answer: 6.48 to 6.74

Question: What about the pIC50 (K562) of the same compound?
Answer: 6.48 to 6.74

Question: And the pIC50 [12]?
Answer: 6.48 to 6.74

Question: And the pIC50 (WiDr)?
Answer: 6.48 to 6.74

Question: And the pIC50 (P388 [13])?
Answer: 6.48 to 6.74

Question: With CC(C)(C)c1[nH]cnc1/C=c1\[nH]c(=O)/c(=C/c2cc(F)ccc2F)[nH]c1=O as the compound, how does the pIC50 (Tubulin) read?
Answer: 8.59

Question: With COc1ccc(-c2oc3cc(O)c(OC)c(O)c3c(=O)c2OC)cc1O [CENTAUREIDIN] as the compound, how does the pIC50 (CA46) read?
Answer: 5.70

Question: With CC(C)=CCc1[nH]c2ccccc2c1C[C@@H]1NC(=O)[C@@H]2CCCN2C1=O [TRYPROSTATIN B] as the compound, how does the MIC [8] read?
Answer: 4.4 µM (≈ 1.55 µg/mL)
